Assay results from US20260315376A1, “NOVEL OPHTHALMIC COMPOSITION” (Cipla Limited, priority 2022, published 2026).
Converted amounts (≈) assume the structure as drawn.

Legend:
Corynebacterium = assay: Broth microdilution antibacterial susceptibility (MIC), keratitis/conjunctivitis isolates; assay type: cell-based; conditions: at ≤2 mcg/mL
Experimental: (§1) Example 3: In Vitro “Proof of Concept” Study of Effects of Plazomicin on Isolates from Bacterial Keratitis and/or Conjunctivitis
(§2) Isolates from patients diagnosed clinically with microbial keratitis were tested for antibacterial susceptibility against plazomicin agents using reference broth microdilution methods.
(§3) 21 grams of Muller Hinton broth powder was suspended in 1000 ml of distilled water.
(§4) Pure cultures of bacterial isolates were prepared in Blood Agar/Mueller Hinton agar from cryovials.
(§5) A standardized inoculum of 0.5 McFarland was prepared using direct colony suspension method.
(§6) 3-5 well isolated colonies were taken from 18-24 hour culture plate and suspended into 2 ml of sterile saline/Muller Hinton broth.
(§7) A homogenous suspension was made, and the turbidity was adjusted to 0.5McFarland turbidity standard (approximately 1*10^6-8 CFU/ml) using the Densitometer.
(§8) A 0.1 ml of standardized bacterial inoculum was added to 9.9 ml of sterile saline solution. (i.e., a 1:100 dilution).
(§9) A 96 well round bottomed plate was used for the Microbroth dilution assay.
(§10) A 100 μl of Muller Hinton broth containing drug concentrations from 0.125 mcg/ml to 64 mcg/ml (0.125 mcg/ml, 0.25 mcg/ml, 0.5 mcg/ml, 1 mcg/ml, 2 mcg/ml, 4 mcg/ml, 8 mcg/ml, 16 mcg/ml, 32 mcg/ml, and 64 mcg/ml) were added to the 96 well.
(§11) To this a 100 μl of the diluted bacterial inoculum (1:100) was added to each well with varying concentration of drugs. Each well contained 5*10^5 CFU/ml bacteria.
(§12) Growth control (Respective organism+Muller Hinton broth) and sterility control (Sterile Muller Hinton broth) were added to the 96 well plate.
(§13) The plate was incubated for 18-24 hours to read the Minimum Inhibitory Concentration (MIC).
(§14) Gram positive isolates evaluated: • 1. Methicillin susceptible Staphylococcus aureus (MSSA) • 2. Methicillin resistant Staphylococcus aureus (MRSA) • 3. Staphylococcus epidermidis • 4. Staphylococcus hominis • 5. Staphylococcus haemolyticus • 6. Streptococcus pneumoniae • 7. Corynebacterium

[1] = tested on: Methicillin resistant Staphylococcus aureus (MRSA); assay: as above; assay type: cell-based
Experimental: as §1, §2, §3, §4, §5, §6, §7, §8, §9, §10, §11, §12, §13, §14

[2] = tested on: Methicillin susceptible Staphylococcus aureus (MSSA); assay: as above; assay type: cell-based
Experimental: as §1, §2, §3, §4, §5, §6, §7, §8, §9, §10, §11, §12, §13, §14

Staphylococcus spp. = assay: as above; assay type: cell-based
Experimental: as §1, §2, §3, §4, §5, §6, §7, §8, §9, §10, §11, §12, §13, §14

S. epidermidis = assay: as above; assay type: cell-based, Staphylococcus epidermidis; conditions: at ≤2 mcg/mL
Experimental: as §1, §2, §3, §4, §5, §6, §7, §8
(§15) A 96 well round bottomed plate was used for the Microbroth dilution assay. […]
as §13
(§16) Gram positive isolates evaluated: • 1. […]

S. hominis = assay: as above; assay type: cell-based, Staphylococcus hominis; conditions: at ≤2 mcg/mL
Experimental: as §1, §2, §3, §4, §5, §6, §7, §8, §15, §13, §16

S. haemolyticus = assay: as above; assay type: cell-based, Staphylococcus haemolyticus; conditions: at ≤2 mcg/mL
Experimental: as §1, §2, §3, §4, §5, §6, §7, §8, §15, §13, §16

Enterobacter spp. = assay: as above; assay type: cell-based; conditions: at ≤2 mcg/mL
Experimental: as §1, §2, §3, §4, §5, §6, §7, §8, §9, §10, §11, §12, §13
(§17) • 1. Pseudomonas • 2. Klebsiella pneumoniae • 3. Klebsiella pneumoniae (ESBLs) • 4. Moraxella lacunata • 5. Haemophilus influenzae • 6. Proteus • 7. Serratia • 8. Enterobacter e.

[3] = tested on: Enterobacterales isolates; assay: as above; assay type: cell-based
Experimental: as §1, §2, §3, §4, §5, §6, §7, §8, §9, §10, §11, §12, §13, §17

Moraxella lacunata = assay: as above; assay type: cell-based; conditions: at ≤2 mcg/mL
Experimental: as §1, §2, §3, §4, §5, §6, §7, §8, §9, §10, §11, §12, §13, §17

Pseudomonas spp. = assay: as above; assay type: cell-based
Experimental: as §1, §2, §3, §4, §5, §6, §7, §8, §9, §10, §11, §12, §13, §17

conjunctival isolates = assay: Broth microdilution antibacterial susceptibility (MIC), conjunctival isolates; assay type: cell-based; conditions: ≤4 mcg/mL
Experimental: as §1, §2, §3, §4, §5, §6, §7, §8, §15, §13, §16

[4] = tested on: Isolates from Bacterial Keratitis and/or Conjunctivitis; assay: In vitro proof of concept study, overall antibacterial activity; assay type: cell-based
Experimental: as §1, §2, §3, §4, §5, §6, §7, §8, §15, §13, §16

MRSA = conditions: vs amikacin; cited from earlier work
MSSA = conditions: vs amikacin; cited from earlier work
[5] = tested on: species of Staphylococcus; conditions: cited from earlier work
[6] = tested on: Gram-negative enteric bacteria; conditions: cited from earlier work
[7] = Staphylococcus aureus, 18-24 hours incubation

Compound: CN[C@@H]1[C@@H](O)[C@@H](O[C@@H]2[C@@H](O)[C@H](O[C@H]3OC(CNCCO)=CC[C@H]3N)[C@@H](N)C[C@H]2NC(=O)[C@@H](O)CCN)OC[C@]1(C)O [Plazomicin]
- activity (% of isolates) (Corynebacterium): 100%
- susceptible isolates [1]: 60%
- MIC50 [1, 7]: 2 µg/mL (≈ 3.37 µM)
- MIC90 [1, 7]: 8 µg/mL (≈ 13.5 µM)
- susceptible isolates [2]: 67.3%
- MIC50 [2, 7]: 2 µg/mL (≈ 3.37 µM)
- MIC90 [2, 7]: 8 µg/mL (≈ 13.5 µM)
- isolates inhibited (Staphylococcus spp.; at ≤2 mcg/mL): 46%
- isolates inhibited (Staphylococcus spp.; at ≤4 mcg/mL): 73.5%
- isolates inhibited (Staphylococcus spp.; at ≤8 mcg/mL): 90.10%
- activity (% of isolates) (S. epidermidis): 100%
- activity (% of isolates) (S. hominis): 100%
- activity (% of isolates) (S. haemolyticus): 100%
- activity (% of isolates) (Enterobacter spp.): 100%
- isolates inhibited ([3]; at ≤2 mcg/mL): 61.5%
- isolates inhibited ([3]; at ≤4 mcg/mL): 11.5%
- activity (% of isolates) (Moraxella lacunata): 100%
- showed activity for % of isolates (Pseudomonas spp.): 50%
- MIC50 (Pseudomonas spp.; 18-24 hours incubation): 4 µg/mL (≈ 6.75 µM)
- MIC90 (Pseudomonas spp.; 18-24 hours incubation): 16 µg/mL (≈ 27 µM)
- susceptibility of conjunctival isolates (conjunctival isolates): 100%
- antibacterial activity (conclusion) [4]: very good antibacterial activity
- activity compared with amikacin (MRSA): greater activity than amikacin
- activity compared with amikacin (MSSA): greater activity than amikacin
- activity [5]: potent activity
- in vitro activity compared with amikacin, gentamicin and tobramycin [6]: more potent in vitro activity than amikacin, gentamicin and tobramycin
